Consider 41 compounds from US20240116857A1 (St. Louis University, priority 2022, published 2024).

A word on the MIC: it is the smallest concentration in the dilution series that meets the test's criterion for growth inhibition.

≈ marks a conversion by molar mass, not a printed value.

One experiment concerns E. coli BW25113. The experiment is described as follows: MIC, 2-fold broth dilution, E. coli BW25113. The format is cell-based, Escherichia coli. To be noted: E. coli BW25113; asterisk in column 1-10.
“1,1′-((([1,1′-biphenyl]-4,4′-dicarbonyl)bis(azanediyl))bis(2-bromo-4,1-phenylene))bis(1-methylpiperidin-1-ium) [Example 88]”: the “MIC, μM 1-10” value is listed as “* (1-10)”.

The same experiment, now with this note: Escherichia coli, BW25113, read-out: MIC, μM >50.
In the case of `CN(C)c1ccc(NC(=O)c2ccc(-c3ccc(C(=O)Nc4ccc(N(C)C)c([N+](=O)[O-])c4)cc3)cc2)cc1[N+](=O)[O-]` [Example 141], the MIC was above 50 µM.

Staying with this experiment, now noted: Escherichia coli; E. coli BW25113; asterisk in column 1-10; read-out: MIC, μM 1-10.
`CCCCCCCCc1cn(CCOCCOCCOCCNC(=O)CCCC[C@H]2SC[C@H]3NC(=O)N[C@H]32)nn1` [Example 142]: the MIC was 1 to 10 µM (≈ 0.583 to 5.83 µg/mL).
For the compound `C#CC[N+](C)(C)c1ccc(NC(=O)c2ccc(-c3ccc(C(=O)Nc4ccc([N+](C)(C)C)c(F)c4)cc3)cc2)cc1F` [Example 94, 4-(4′-((4-(dimethyl(prop-2-yn-1-yl)ammonio)-3-fluorophenyl)carbamoyl)-[1,1′-biphenyl]-4-carboxamido)-2-fluoro-N,N,N-trimethylbenzenaminium], the MIC was 1 to 10 µM.
Still for that read-out and setting: the value for `C[n+]1ccc(Nc2ccc(NC(=O)c3ccc(Cc4ccc(C(=O)Nc5ccc(Nc6cc[n+](C)cc6)cc5)cc4)cc3)cc2)cc1` [Example 52, 4,4′-((((4,4′-methylenebis(benzoyl))bis(azanediyl))bis(4,1-phenylene))bis(azanediyl))bis(1-methylpyridin-1-ium)] was 1 to 10 µM; that for `C[n+]1ccc(Nc2ccc(NC(=O)c3ccc(C(=O)Nc4ccc(Nc5cc[n+](C)cc5)cc4)c(Br)c3)cc2)cc1` [Example 87, 4,4′-((((2-bromoterephthaloyl)bis(azanediyl))bis(4,1-phenylene))bis(azanediyl))bis(1-methylpyridin-1-ium)] was 1 to 10 µM.
Same read-out and setting: the value for `C[N+](C)(C)c1ccc(NC(=O)c2ccc(-c3ccc(C(=O)Nc4ccc([N+](C)(C)C)c(N)c4)cc3C#N)cc2)cc1` [Example 153] was 1 to 10 µM; that for `C[N+](C)(C)c1ccc(NC(=O)c2ccc(-c3ccc(C(=O)Nc4ccc([N+]5(C)CCCCC5)cc4)cc3)cc2)cc1F` [Example 129] was 1 to 10 µM.
In the case of `CN(C)c1ccc(NC(=O)c2ccc(-c3ccc(C(=O)Nc4ccc(N5CCCCC5)c(F)c4)cc3)cc2)cc1F` [Example 143], the MIC was in the range of 1 to 10 µM (≈ 0.555 to 5.55 µg/mL).
Still for that read-out and setting: the value for `C[n+]1ccc(Nc2ccc(NC(=O)c3ccc(C(=O)Nc4ccc(Nc5cc[n+](C)cc5)cc4)c(F)c3)cc2)cc1` [Example 58, 4,4′-((((2-fluoroterephthaloyl)bis(azanediyl))bis(4,1-phenylene))bis(azanediyl))bis(1-methylpyridin-1-ium)] was 1 to 10 µM.

The experiment is the same for the next values; noted with them: Escherichia coli; E. coli BW25113; asterisk in column 10-50; read-out: MIC, μM 10-50.
For `C[n+]1ccc(Oc2ccc(NC(=O)c3ccc(C(=O)Nc4ccc(Oc5cc[n+](C)cc5)cc4)cc3)cc2)cc1` [Example 13, 4,4′-(((terephthaloylbis(azanediyl))bis(4,1-phenylene))bis(oxy))bis(1-methylpyridin-1-ium)], the MIC fell in the range of 10 to 50 µM.
On the same count and under the same terms, the value for `C[n+]1ccc(NC(=O)c2ccc(C(=O)Nc3ccc(Nc4cc[n+](C)cc4)c(F)c3)cc2)cc1` [Example 66, 1-methyl-4-(4-((3-fluoro-4-((1-methylpyridin-1-ium-4-yl)amino)phenyl)carbamoyl)benzamido)pyridin-1-ium] was 10 to 50 µM.

The same experiment, now with this note: Escherichia coli; E. coli BW25113; asterisk in column >50; read-out: MIC, μM >50.
Regarding `C[N+](C)(C)c1ccc(NC(=O)c2ccc(-c3ccc(C(=O)Nc4ccc([N+](C)(C)C)c(C#N)c4)cc3C#N)cc2)cc1` [Example 150], the MIC is above 50 µM.
Still for that read-out and setting: the value for `O=C(Nc1ccc(Nc2ccncc2)cc1)c1ccc(C(=O)Nc2ccc(Nc3ccncc3)cc2)c(OC(F)(F)F)c1` [Example 43, N^1,N^4-bis(4-(pyridin-4-ylamino)phenyl)-2-(trifluoromethoxy)terephthalamide] was above 50 µM.
As for `CN(C)c1ccc(NC(=O)c2ccc(-c3ccc(C(=O)Nc4ccc(N(C)C)c([N+](=O)[O-])c4)cc3)c(S(C)(=O)=O)c2)cc1` [Example 140], the MIC was above 50 µM.
The same measure, in the same setting: the value for `O=C(NCc1ccncc1)c1ccc(-c2ccc(C(=O)NCc3ccncc3)cc2)cc1` [Example 92, N^4,N^4′-bis(pyridin-4-ylmethyl)-[1,1′-biphenyl]-4,4′-dicarboxamide] was above 50 µM; that for `COc1cc(NC(=O)c2ccc(-c3ccc(C(=O)Nc4ccc(N(C)C)c(F)c4)cc3)cc2)ccc1N(C)C` [Example 97, N^4-(4-(dimethylamino)-3-fluorophenyl)-N^4′-(4-(dimethylamino)-3-methoxyphenyl)-[1,1′-biphenyl]-4,4′-dicarboxamide] was above 50 µM; that for `C[n+]1ccccc1Nc1ccc(NC(=O)c2ccc(C(=O)Nc3ccc(Nc4cccc[n+]4C)cc3)cc2)cc1` [Example 14, 2,2′-(((terephthaloylbis(azanediyl))bis(4,1-phenylene))bis(azanediyl))bis(1-methylpyridin-1-ium)] was above 50 µM.
Take `C#CCCCN(C)c1ccc(NC(=O)c2ccc(-c3ccc(C(=O)Nc4ccc(N(C)C)c(F)c4)cc3)cc2)cc1F` [Example 124]: the MIC is above 50 µM.
`O=C(Nc1ccncc1)c1ccc2cc(C(=O)Nc3ccncc3)ccc2c1` [Example 3, N^2,N^6-di(pyridin-4-yl)naphthalene-2,6-dicarboxamide]: the MIC is above 50 µM.
Same read-out and setting: the value for `Cc1cc(Nc2cc[n+](C)cc2)ccc1NC(=O)c1ccc(C(=O)Nc2cc[n+](C)cc2)cc1` [Example 67, 1-methyl-4-(4-((2-methyl-4-((1-methylpyridin-1-ium-4-yl)amino)phenyl)carbamoyl)benzamido)pyridin-1-ium] was above 50 µM; that for `C[N+](C)(C)c1ccc(NC(=O)c2ccc(-c3ccc(C(=O)Nc4ccc([N+]5(C)CCCCC5)cc4)cc3)cc2)cc1` [Example 144] was above 50 µM.
As to `C[n+]1ccc(-c2ccc(NC(=O)c3ccc(-c4ccc(C(=O)Nc5ccc(-c6cc[n+](C)cc6)cc5)cc4)cc3)cc2)cc1` [Example 59, 4,4′-((([1,1′-biphenyl]-4,4′-dicarbonyl)bis(azanediyl))bis(4,1-phenylene))bis(1-methylpyridin-1-ium)], the MIC is above 50 µM.
The same measure, in the same setting: the value for `Cc1cc(NC(=O)c2ccc(-c3ccc(C(=O)Nc4ccc(N(C)C)c(C)c4)cc3)cc2)ccc1N(C)C` [Example 36, N^4,N^4′-bis(4-(dimethylamino)-3-methylphenyl)-[1,1′-biphenyl]-4,4′-dicarboxamide] was above 50 µM; that for `C[n+]1ccc(NC(=O)c2ccc(C(=O)Nc3cc[n+](C)cc3)cc2)cc1` [Example 2, 4,4′-(terephthaloylbis(azanediyl))bis(1-methylpyridin-1-ium)] was above 50 µM.
As to `COc1cc(NC(=O)c2ccc(-c3ccc(C(=O)Nc4ccc(N(C)C)c(OC)c4)cc3)cc2)ccc1N(C)C` [Example 33, N^4,N^4′-bis(4-(dimethylamino)-3-methoxyphenyl)-[1,1′-biphenyl]-4,4′-dicarboxamide], the MIC is above 50 µM.
`O=C(Nc1ccc(-c2ccc(NC(=O)c3ccncc3)cc2)cc1)c1ccncc1` [Example 81, N,N′-([1,1′-biphenyl]-4,4′-diyl)diisonicotinamide]: the MIC was above 50 µM.
On the same count and under the same terms, the value for `C#CCCCOc1cc(NC(=O)c2ccc(-c3ccc(C(=O)Nc4ccc(N(C)C)c(F)c4)cc3)cc2)ccc1N(C)C` [Example 123] was above 50 µM.
`C#CCCCC[N+](C)(C)c1ccc(NC(=O)c2ccc(-c3ccc(C(=O)Nc4ccc([N+](C)(C)C)c(F)c4)cc3)cc2)cc1F` [Example 121]: the MIC was above 50 µM.
As to `CN(C)c1ccc(NC(=O)c2ccc(-c3ccc(C(=O)Nc4ccc(N(C)C)c(C(F)(F)F)c4)cc3)cc2)cc1C(F)(F)F` [Example 74, N^4,N^4′-bis(4-(dimethylamino)-3-(trifluoromethyl)phenyl)-[1,1′-biphenyl]-4,4′-dicarboxamide], the MIC is above 50 µM.
The same measure, in the same setting: the value for `CN(C)c1ccc(NC(=O)c2ccnc(-c3cc(C(=O)Nc4ccc(N(C)C)cc4)ccn3)c2)cc1` [Example 76, N^4,N^4′-bis(4-(dimethylamino)phenyl)-[2,2′-bipyridine]-4,4′-dicarboxamide] was above 50 µM; that for `CN(C)c1ccc(NC(=O)c2ccc(-c3ccc(C(=O)Nc4ccc(N(C)C)c(Cl)c4)cc3)cc2)cc1Cl` [Example 38, N^4,N^4′-bis(3-chloro-4-(dimethylamino)phenyl)-[1,1′-biphenyl]-4,4′-dicarboxamide] was above 50 µM; that for `COc1cc([N+](C)(C)C)ccc1NC(=O)c1ccc(-c2ccc(C(=O)Nc3ccc([N+](C)(C)C)cc3OC)cc2)cc1` [Example 32] was above 50 µM.
As to `C[N+](C)(C)c1ccc(NC(=O)c2ccc(-c3ccc(C(=O)Nc4ccc([N+](C)(C)CCCCc5cn(CCOCCOCCOCCNC(=O)CCCC[C@@H]6SC[C@@H]7NC(=O)N[C@@H]76)nn5)c(F)c4)cc3)cc2)cc1F` [Example 132], the MIC was above 50 µM.
On to `C#CCN(C)c1ccc(NC(=O)c2ccc(-c3ccc(C(=O)Nc4ccc([N+](C)(C)C)c(F)c4)cc3)cc2)cc1F` [Example 104], for which the MIC was above 50 µM.
As for `O=C(Nc1ccc(Cc2ccncc2)cc1)c1ccc(C(=O)Nc2ccc(Cc3ccncc3)cc2)cc1` [Example 12, N^1,N^4-bis(4-(pyridin-4-ylmethyl)phenyl)terephthalamide], the MIC is above 50 µM.
Regarding `O=C(Nc1ccncc1)c1ccc(C(=O)Nc2ccncc2)cc1` [Example 1, N^1,N^4-di(pyridin-4-yl)terephthalamide], the minimum inhibitory concentration (MIC) is above 50 µM.
Consider `C#CCCCCCCCCOc1cc(NC(=O)c2ccc(-c3ccc(C(=O)Nc4ccc(N(C)C)c(F)c4)cc3)cc2)ccc1N(C)C` [Example 117], for which the MIC is above 50 µM.
Take `O=C(Nc1ccncc1)c1ccc(-c2ccc(C(=O)Nc3ccncc3)cc2)cc1` [Example 7, N^4,N^4′-di(pyridin-4-yl)-[1,1′-biphenyl]-4,4′-dicarboxamide]: the MIC was above 50 µM.
Still for that read-out and setting: the value for `Cc1cc(NC(=O)c2ccc(C(=O)Nc3ccncc3)cc2)ccc1Nc1ccncc1` [Example 64, N^1-(3-methyl-4-(pyridin-4-ylamino)phenyl)-N^4-(pyridin-4-yl)terephthalamide] was above 50 µM.
Regarding `C[N+](C)(C)c1ccc(NS(=O)(=O)c2ccc(-c3ccc(S(=O)(=O)Nc4ccc([N+](C)(C)C)cc4)cc3)cc2)cc1` [Example 71], the minimum inhibitory concentration (MIC) was above 50 µM.
